The source of these data is US4626542A, “4-(5H-dibenzo[a,d]cyclohepten-5-yl)piperidine compounds, pharmaceutical compositions and methods” (Merck & Co., Inc., priority 1984, dated 1986).

One may read the inhibition as the change of the read-out against control, counted positive when it falls.

System in one data set: not listed separately
In words: Isomerization of the 5H axial to the 5H equatorial isomer followed by 1H NMR. In kind it is physicochemical. The note with it: 3.67 milligrams in 1 milliliter CDCl3, heated at 55° C.±1° C. The method, then:
Isomerization of the 5H axial isomer of 4-(5H-dibenzo[a,d]cyclohepten-5-yl)-1-methylpiperidine to the 5H equatorial isomer was carried out in an NMR tube. 3.67 milligrams of the axial isomer was dissolved in 1 milliliter of CDCl3 at 24° C. and the sample inserted into the probe of a Nicolet NT-360 NMR spectrometer where it was heated at 55° C.±1° C. NMR spectra (^1 H) were obtained every 864 seconds until isomerization to the equatorial isomer was complete as evidenced by the disappearance of the singlet corresponding to the 5H-axial proton and appearance of the 5H-equatorial proton (about 48,727 seconds).
Consider `CN1CCC(C2c3ccccc3C=Cc3ccccc32)CC1` [4-(5H-Dibenzo[a,d]cyclohepten-5-yl)-1-methylpiperidine, axial isomer], for which the “time until isomerization to the equatorial isomer was complete” value is on record as “about 48,727 seconds”.

For a further data set, the system named is Rat Aorta. In words: Inhibition of calcium chloride-induced contraction of depolarized vascular smooth muscle segments (rat aorta). In kind it is cell-based, rat (male Sprague-Dawley). To be noted: Rattus norvegicus, at 10^-7 M; 1.0 mM calcium chloride-induced contraction; read-out: Percent Inhibition of Rat Aorta. The procedure:
The property may be observed in a test in which segments of vascular smooth muscle obtained from male Sprague-Dawley rats are suspended in physiological salt solution in a tissue bath instrumented for recording contractions. After the tissue has been equilibrated, washed in calcium-free physiological salt solution and then depolarized, 1.0 mM calcium chloride is re-added to induce contraction. After the contraction has reached a plateau, tissues are washed and a test compound or vehicle is added to determine the effect on a second contraction achieved by the above cyclic protocol. From measuring the initial contraction as well as the second contraction in the presence of the test compound, the extent of inhibition may be calculated. The results of these tests for representative compounds in the compositions of the present invention are seen in the following table. The results are with tests conducted at very low concentrations of 10^-7 M or less.
`CC(C)N1CCC(C2c3ccccc3C=Cc3ccccc32)CC1` [4-(5H-Dibenzo[a,d]cyclohepten-5-yl)-1-isopropylpiperidine]: the inhibition at 0.1 µM amounted to 44%.
In the case of `C1=Cc2ccccc2C(C2CCNCC2)c2ccccc21` [4-(5H-Dibenzo[a,d]cyclohepten-5-yl)piperidine], the inhibition at 0.1 µM amounted to 39%.
For the molecule `C[N+]1([O-])CCC(C2c3ccccc3C=Cc3ccccc32)CC1` (stereo not drawn) [4-(5H-Dibenzo[a,d]cyclohepten-5-yl)-1-methylpiperidine-1-oxide monohydrate], the inhibition at 0.1 µM is 17%.
On the same count and under the same terms, the same measure for `CN1CCC(C2c3ccccc3C=Cc3ccc(Br)cc32)CC1` (racemic) [4-(3-Bromo-5H-dibenzo[a,d]cyclohepten-5-yl)-1-methylpiperidine, equatorial isomer]: 80%; for `C1=Cc2ccccc2C(C2CCN(C3CCCCC3)CC2)c2ccccc21` [4-(5H-Dibenzo[a,d]cyclohepten-5-yl)-1-cyclohexylpiperidine]: 48%.
Still for that read-out and setting: the same measure for `CN1CCC(C2c3ccccc3C=Cc3ccccc32)CC1` [4-(5H-Dibenzo[a,d]cyclohepten-5-yl)-1-methylpiperidine, axial isomer]: 30%.

Staying with this data set, now noted: Rattus norvegicus, at 10^-8 M; 1.0 mM calcium chloride-induced contraction; read-out: Percent Inhibition of Rat Aorta.
Consider `COc1ccc2c(c1)C(C1CCN(C)CC1)c1ccccc1C=C2` (racemic) [4-(3-Methoxy-5H-dibenzo[a,d]cyclohepten-5-yl)-1-methylpiperidine], for which the inhibition at 0.01 µM was 37%.
On the same count and under the same terms, the result for `CN1CCC(C2c3ccccc3C=Cc3ccccc32)CC1` [4-(5H-Dibenzo[a,d]cyclohepten-5-yl)-1-methylpiperidine, equatorial isomer] reads 11%.

The data set is the same for the next values; noted with them: at 10^-7 M; 1.0 mM calcium chloride-induced contraction.
As to `CN1CCC(C2c3ccccc3C=Cc3ccc(Br)cc32)CC1` (single isomer, unassigned; (+)) [5H--eq (+)4-(3-Bromo-5H--dibenzo[a,d]cyclohepten-5-yl)-1-met] [(+)-4-(3-bromo-5H-dibenzo[a,d]cyclohepten-5-yl)-1-methylpiperidine], the “Percent Inhibition of Rat Aorta” value is 22%.
Same read-out and setting: the result for `CN1CCC(C2c3ccccc3C=Cc3ccc(Br)cc32)CC1` (racemic) [5H--ax (±)4-(3-Bromo-5H--dibenzo[a,d]cyclohepten-5-yl)-1-met] [4-(3-Bromo-5H-dibenzo[a,d]cyclohepten-5-yl)-1-methylpiperidine, axial isomer] reads 79%.
In the case of `CN1CCC(C2c3ccccc3C=Cc3ccc(Br)cc32)CC1` (single isomer, unassigned; (-)) [5H--eq (-)4-(3-Bromo-5H--dibenzo[a,d]cyclohepten-5-yl)-1-met] [(-)-4-(3-bromo-5H-dibenzo[a,d]cyclohepten-5-yl)-1-methylpiperidine], the “Percent Inhibition of Rat Aorta” value stood at 92%.
